Earlier results on 1 compound are cited in US20050271657A1, “Intermittent treatment regime for organ failure” (Australian Stem Cell Centre Ltd., priority 2004, published 2005).

Data set [1] relates to A II production from angiotensin I (A I).
For data set [2] the following is noted: renal transplant patients.

For the compound `CCOC(=O)[C@H](CCc1ccccc1)N[C@@H](C)C(=O)N1CCC[C@H]1C(=O)O` [Enalapril, enalapril], in data set [1], the “blockage of A II production from angiotensin I at specific glomerular sites” value is “blockage”. The anemia entry in data set [2] is “reversible anemia”.
